Experimental data: publication PMC3462592 (Journal of medicinal chemistry, 2012)
In brackets after ≈: the same amount, converted by molar mass. Where two headings read alike, the source gives them in different places.

Experiments:
[1] = Aqueous solubility determination; type: physicochemical
[2] = Human liver microsome stability assay; type: in vitro ADME; details: for microsomal CLint at 1 μM: human, human liver microsomes, pH 7.4; for HLM t1/2: human liver microsomes 0.1 mg/mL, 1 μM compound, 37 °C, at least two experiments
HIV-1 NL4-3 (wild-type) = experiment: microbe, parasite or virus in culture; type: cell-based; details: for EC50: Human immunodeficiency virus 1, NL43, TZM-bl; for SI (selectivity index): ratio CC50/EC50
[3] = In vitro cytotoxicity in TZM-bl cells; type: cell-based; details: human

With `Cc1cc(CO)cc(C)c1Oc1cc(Nc2ccc(C#N)cc2)c(N)cc1CO` [13e, N^1-(4′-Cyanophenyl)-5-(2″,6″-dimethyl-4″-hydroxymethylphenoxy)-4-hydroxymethylbenzene-1,2-diamine] the solubility at 4 h ([1]; 0.01 M HCl, pH 2) was 20.9 to 44.7 µg/mL (≈ 53.7 to 115 µM).

Compound `Cc1cc(/C=C/C#N)cc(C)c1Oc1cc(Nc2ccc(C#N)cc2)c(N)cc1C(F)(F)F` [14a, (E)-N^1-(4′-Cyanophenyl)-5-(4″-cyanovinyl-2″,6″-dimethylphenoxy)-4-trifluoromethylbenzene-1,2-diamine] has a microsomal CLint at 1 μM [2] of 150 µL/min/mg.

`COC(=O)c1cc(N)c(Nc2ccc(C#N)cc2)cc1Oc1c(C)cc(/C=C/C#N)cc1C` [14c, (E)-N^1-(4′-Cyanophenyl)-5-(4″-cyanovinyl-2″,6″-dimethylphenoxy)-4-methoxycarbonylbenzene-1,2-diamine] gave an EC50 (HIV-1 NL4-3 (wild-type)) of 2.74 nM, an EC50 (HIV-1 NL4-3 (wild-type); read-out: EC50 NL4-3 (wt)) of 2.74 ± 0.71 nM and a microsomal CLint at 1 μM [2] of 20 µL/min/mg.

With `Cc1cc(/C=C/C#N)cc(C)c1Oc1cc(Nc2ccc(C#N)cc2)c(N)cc1C(=O)O` [14d, (E)-4-Carboxy-N^1-(4′-cyanophenyl)-5-(4″-cyanovinyl-2″,6″-dimethylphenoxy)benzene-1,2-diamine] the EC50 (HIV-1 NL4-3 (wild-type); read-out: EC50 NL4-3 (wt)) was 230 ± 38 nM.

In the case of `Cc1cc(/C=C/C#N)cc(C)c1Oc1cc(Nc2ccc(C#N)cc2)c(N)cc1C(N)=O` [14e, (E)-4-Carbamoyl-N^1-(4′-cyanophenyl)-5-(4″-cyanovinyl-2″,6″-dimethylphenoxy)benzene-1,2-diamine], the EC50 (HIV-1 NL4-3 (wild-type)) is reported as 0.87 nM, the EC50 (HIV-1 NL4-3 (wild-type); read-out: EC50 NL4-3) is reported as 0.87 nM and the EC50 (HIV-1 NL4-3 (wild-type); read-out: EC50 NL4-3 (wt)) is reported as 0.87 ± 0.28 nM.

Work on `CNC(=O)c1cc(N)c(Nc2ccc(C#N)cc2)cc1Oc1c(C)cc(/C=C/C#N)cc1C` [14f, (E)-N^1-(4′-Cyanophenyl)-5-(4″-cyanovinyl-2″,6″-dimethylphenoxy)-4-methylcarbamoylbenzene-1,2-diamine] yielded an EC50 (HIV-1 NL4-3 (wild-type)) of 5.72 nM, an EC50 (HIV-1 NL4-3 (wild-type); read-out: EC50 NL4-3 (wt)) of 5.72 ± 0.94 nM and a microsomal CLint at 1 μM [2] of 150 µL/min/mg.

`Cc1cc(/C=C/C#N)cc(C)c1Oc1cc(Nc2ccc(C#N)cc2)c(N)cc1CO` [14h, (E)-N^1-(4′-Cyanophenyl)-5-(4″-cyanovinyl-2″,6″-dimethylphenoxy)-4-hydroxymethylbenzene-1,2-diamine] gave an EC50 (HIV-1 NL4-3 (wild-type)) of 0.53 nM, an EC50 (HIV-1 NL4-3 (wild-type); read-out: EC50 NL4-3) of 0.53 nM and an EC50 (HIV-1 NL4-3 (wild-type); read-out: EC50 NL4-3 (wt)) of 0.53 ± 0.13 nM. For the same compound, the “HLM t1/2” value [2] was 30.2 min.

For `Cc1cc(CCC#N)cc(C)c1Oc1cc(Nc2ccc(C#N)cc2)c(N)cc1C(F)(F)F` [15a, 5-(4″-Cyanoethyl-2″,6″-dimethylphenoxy)-N^1-(4′-cyanophenyl)-4-trifluoromethylbenzene-1,2-diamine], the “SI (selectivity index)” value (HIV-1 NL4-3 (wild-type); Table 1) was > 6454, the solubility at 4 h ([1]; 0.01 M HCl, pH 2, Aqueous solubility pH 2.0, Table 4, pH 2.0, triplicate) was 0.33 µg/mL (≈ 0.733 µM) and the microsomal CLint at 1 μM [2] was 120 µL/min/mg.

`COC(=O)c1cc(N)c(Nc2ccc(C#N)cc2)cc1Oc1c(C)cc(CCC#N)cc1C` [15c, 5-(4″-Cyanoethyl-2″,6″-dimethylphenoxy)-N^1-(4′-cyanophenyl)-4-methoxycarbonylbenzene-1,2-diamine] showed a microsomal CLint at 1 μM [2] of 40 µL/min/mg.

`Cc1cc(CCC#N)cc(C)c1Oc1cc(Nc2ccc(C#N)cc2)c(N)cc1C(N)=O` [15e, 4-Carbanoyl-N^1-(4′-cyanophenyl)-5-(4″-cyanoethyl-2″,6″-dimethylphenoxy)benzene-1,2-diamine] gave a microsomal CLint at 1 μM [2] of 160 µL/min/mg.

Work on `CNC(=O)c1cc(N)c(Nc2ccc(C#N)cc2)cc1Oc1c(C)cc(CCC#N)cc1C` [15f, 5-(4″-Cyanoethyl-2″,6″-dimethylphenoxy)-N^1-(4′-cyanophenyl)-4-methylcarbanoylbenzene-1,2-diamine] yielded a microsomal CLint at 1 μM [2] of 120 µL/min/mg.

`Cc1cc(CCC#N)cc(C)c1Oc1cc(Nc2ccc(C#N)cc2)c(N)cc1CO` [15h, 5-(4″-Cyanoethyl-2″,6″-dimethylphenoxy)-N^1-(4′-cyanophenyl)-4-hydroxymethylbenzene-1,2-diamine] gave a microsomal CLint at 1 μM [2] of 330 µL/min/mg.

For `Cc1cc(CCC#N)cc(C)c1Oc1cc(Nc2ccc(C#N)cc2)c(N)cc1N` [15i, 5-(4″-Cyanoethyl-2″,6″-dimethyl)phenoxy-N^1-(4′-cyanophenyl)benzene-1,2,4-triamine], the “SI (selectivity index)” value (HIV-1 NL4-3 (wild-type); Table 2) was >3906.

With `Cc1cc(/C=C/C#N)cc(C)c1Nc1ccnc(Nc2ccc(C#N)cc2)n1` [compound 2, rilpivirine, reference compound] the CC50 at 4 days [3] was 19.4 µM and the “HLM t1/2” value [2] was 34.2 min.

Work on `Cc1cc(/C=C/C#N)cc(C)c1Oc1cc(Nc2ccc(C#N)cc2)c(N)cc1[N+](=O)[O-]` [compound 3] yielded a solubility at 4 h [1] of 0.29 µg/mL (≈ 0.682 µM).
